Test results as given in patent publication US12180508B2, “Method of preparing in vitro-matured human intestinal organoids and use thereof” (KOREA RESEARCH INSTITUTE OF BIOSCIENCE AND BIOTECHNOLOGY, priority 2018, dated 2024).
Read-outs that look alike come from different tables or passages of the source. Values belong to the molecule of their own block, whether it stands above or below them.

Assays:
CFTR = target: T1, CFTR (Homo sapiens, UniProt P13569); assay: Forskolin-induced organoid swelling assay (CFTR function); type: cell-based; conditions: mature organoids, forskolin 25 uM, 120 minutes
T1 construct: To examine the function of CFTR present in mature intestine epithelial cells in organoid models; endogenous in cells; host or cells: hPSC-derived human intestinal organoids (control, co-cultured with Jurkat T cells, or IL-2-treated)
Description: To examine the function of CFTR present in mature intestine epithelial cells in organoid models, forskolin-induced organoid swelling assay was performed. Control and co-cultured or IL-2-treated hIOs (n=4) were treated with forskolin (25 uM, Merckmillopore), and then morphological observation was performed for 120 min at 20 min intervals through live imaging function of a microscope (IX83, Olympus). CFTR inhibitors (CFTRinh172, GlyH101) were co-treated, and morphological observation was performed for the same time. The size of organoids was calculated every hour, and mean values thereof were used to plot a graph.

hPSC-derived hIOs = assay: Growth / size (surface area, budding) of hPSC-derived hIOs; type: cell-based, human; conditions: for stimulation of IL-2 on hIO growth in presence of inhibitor: with IL-2, S31-201 10 μM, Stattic 1 μM, Rapamycin 10 nM; for growth of hIOs with many crypt-like budding structures: treatment with STAT3 activators
Description: To estimate the size of hIOs, surface areas of horizontal cross-sections of hIOs were measured.

p-STAT3 (Y705) = assay: Phospho-STAT3 immunostaining of hIOs; type: cell-based, human; conditions: IL-2 treated Mat-hIOs; Stattic 1 μM or S3I-201 10 μM
Description: (§1) An immunofluorescence analysis was performed according to a known method (Kwak et al., Biochemical and biophysical research communications 457, 554-560, 2015). In detail, hPSCs and definitive endodermal cells were fixed in 4% paraformaldehyde (PFA) and then permeabilized with PBS containing 0.1% Triton X-100.
(§2) hIOs and tissues were fixed, cryo-protected in sucrose, and frozen using an optimal-cutting-temperature (OCT) compound (Sakura Finetek, Tokyo, Japan). Then, frozen sections were cut at a thickness of 10-20 μm using a cryostat microtome at −20° C. and permeabilized with PBS containing 0.1% Triton X-100 for immunofluorescence analysis.
(§3) In detail, after being blocked with 4% BSA, cells were incubated with primary antibodies at 4° C. overnight, and then incubated with secondary antibodies for 1 hr at room temperature. The used primary antibodies are as in Table 2. Paraffin sections were deparaffinized, subjected to antigen retrieval, and stained in a similar manner to OCT sections. DAPI was added to visualize nuclei. Slides were examined with an Axiovert 200M microscope (Carl Zeiss, Gottingen, Germany) or a fluorescence microscope (IX51, Olympus, Japan).

[1] = target: P-glycoprotein (P-gp)/MDR1 (Homo sapiens, UniProt P08183); conditions: paclitaxel 10 μM basolateral, 2 hr incubation
hIOs [2] = assay: qPCR of intestinal maturation markers in hIOs; type: cell-based, human; conditions: colivelin treatment compared with control hIOs
Description: Total RNA was extracted from cells using an RNeasy Kit (Qiagen), and reverse-transcribed using a Superscript III cDNA synthesis kit (Invitrogen). qRT-PCR was performed by a method disclosed in a 7500 Fast Real-time PCR system (Applied Biosystems, Foster City, CA, USA) (Cho et al., Oncotarget 6, 23837-23844, 2015). All experiments were performed in triplicate, and CT value of each target gene was calculated using a software provided by the manufacturer. Nucleotide sequences of the used primers are as in Table 1.

hIOs [3] = assay: Immunofluorescence staining of marker proteins in hIOs; type: cell-based, human; conditions: colivelin treatment
Description: as §1, §2, §3

T1 sequence (P13569 whole entry): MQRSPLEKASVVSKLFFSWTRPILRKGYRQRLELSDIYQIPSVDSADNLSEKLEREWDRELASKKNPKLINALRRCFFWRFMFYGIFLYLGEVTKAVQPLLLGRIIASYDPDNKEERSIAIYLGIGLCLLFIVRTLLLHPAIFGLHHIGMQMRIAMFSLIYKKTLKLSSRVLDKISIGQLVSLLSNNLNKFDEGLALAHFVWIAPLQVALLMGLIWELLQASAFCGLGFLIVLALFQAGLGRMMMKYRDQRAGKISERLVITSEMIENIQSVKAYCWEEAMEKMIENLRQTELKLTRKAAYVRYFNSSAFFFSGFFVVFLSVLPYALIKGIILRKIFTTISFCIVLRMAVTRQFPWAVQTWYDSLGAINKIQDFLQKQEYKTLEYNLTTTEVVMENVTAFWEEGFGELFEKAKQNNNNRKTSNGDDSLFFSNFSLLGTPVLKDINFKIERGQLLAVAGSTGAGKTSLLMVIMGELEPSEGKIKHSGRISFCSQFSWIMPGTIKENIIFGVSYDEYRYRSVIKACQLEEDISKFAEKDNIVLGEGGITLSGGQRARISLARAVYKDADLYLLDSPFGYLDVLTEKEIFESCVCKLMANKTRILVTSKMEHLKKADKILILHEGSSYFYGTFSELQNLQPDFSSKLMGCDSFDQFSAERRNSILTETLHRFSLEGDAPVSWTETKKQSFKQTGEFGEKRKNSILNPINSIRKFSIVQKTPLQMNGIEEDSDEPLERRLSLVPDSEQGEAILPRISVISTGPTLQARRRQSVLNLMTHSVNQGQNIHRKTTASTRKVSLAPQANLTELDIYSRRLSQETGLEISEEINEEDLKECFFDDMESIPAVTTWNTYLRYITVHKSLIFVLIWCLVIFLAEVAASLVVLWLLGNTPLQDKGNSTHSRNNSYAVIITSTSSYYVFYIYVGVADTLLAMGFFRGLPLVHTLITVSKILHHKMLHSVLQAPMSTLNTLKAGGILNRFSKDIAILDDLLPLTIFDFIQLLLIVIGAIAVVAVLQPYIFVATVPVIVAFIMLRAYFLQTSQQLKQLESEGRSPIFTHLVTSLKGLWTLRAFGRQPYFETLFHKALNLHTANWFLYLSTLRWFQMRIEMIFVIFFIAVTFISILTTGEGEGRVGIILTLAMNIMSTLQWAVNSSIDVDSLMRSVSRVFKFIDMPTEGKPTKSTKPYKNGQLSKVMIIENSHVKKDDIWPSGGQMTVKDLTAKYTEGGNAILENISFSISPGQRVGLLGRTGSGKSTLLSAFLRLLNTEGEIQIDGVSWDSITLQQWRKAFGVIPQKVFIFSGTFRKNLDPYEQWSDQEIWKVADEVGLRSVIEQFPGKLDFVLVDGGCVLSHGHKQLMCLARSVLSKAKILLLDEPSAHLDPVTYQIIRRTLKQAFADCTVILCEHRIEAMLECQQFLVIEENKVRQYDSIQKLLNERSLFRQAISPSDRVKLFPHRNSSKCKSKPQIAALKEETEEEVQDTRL
P-glycoprotein (P-gp)/MDR1, sequence (P08183 whole entry): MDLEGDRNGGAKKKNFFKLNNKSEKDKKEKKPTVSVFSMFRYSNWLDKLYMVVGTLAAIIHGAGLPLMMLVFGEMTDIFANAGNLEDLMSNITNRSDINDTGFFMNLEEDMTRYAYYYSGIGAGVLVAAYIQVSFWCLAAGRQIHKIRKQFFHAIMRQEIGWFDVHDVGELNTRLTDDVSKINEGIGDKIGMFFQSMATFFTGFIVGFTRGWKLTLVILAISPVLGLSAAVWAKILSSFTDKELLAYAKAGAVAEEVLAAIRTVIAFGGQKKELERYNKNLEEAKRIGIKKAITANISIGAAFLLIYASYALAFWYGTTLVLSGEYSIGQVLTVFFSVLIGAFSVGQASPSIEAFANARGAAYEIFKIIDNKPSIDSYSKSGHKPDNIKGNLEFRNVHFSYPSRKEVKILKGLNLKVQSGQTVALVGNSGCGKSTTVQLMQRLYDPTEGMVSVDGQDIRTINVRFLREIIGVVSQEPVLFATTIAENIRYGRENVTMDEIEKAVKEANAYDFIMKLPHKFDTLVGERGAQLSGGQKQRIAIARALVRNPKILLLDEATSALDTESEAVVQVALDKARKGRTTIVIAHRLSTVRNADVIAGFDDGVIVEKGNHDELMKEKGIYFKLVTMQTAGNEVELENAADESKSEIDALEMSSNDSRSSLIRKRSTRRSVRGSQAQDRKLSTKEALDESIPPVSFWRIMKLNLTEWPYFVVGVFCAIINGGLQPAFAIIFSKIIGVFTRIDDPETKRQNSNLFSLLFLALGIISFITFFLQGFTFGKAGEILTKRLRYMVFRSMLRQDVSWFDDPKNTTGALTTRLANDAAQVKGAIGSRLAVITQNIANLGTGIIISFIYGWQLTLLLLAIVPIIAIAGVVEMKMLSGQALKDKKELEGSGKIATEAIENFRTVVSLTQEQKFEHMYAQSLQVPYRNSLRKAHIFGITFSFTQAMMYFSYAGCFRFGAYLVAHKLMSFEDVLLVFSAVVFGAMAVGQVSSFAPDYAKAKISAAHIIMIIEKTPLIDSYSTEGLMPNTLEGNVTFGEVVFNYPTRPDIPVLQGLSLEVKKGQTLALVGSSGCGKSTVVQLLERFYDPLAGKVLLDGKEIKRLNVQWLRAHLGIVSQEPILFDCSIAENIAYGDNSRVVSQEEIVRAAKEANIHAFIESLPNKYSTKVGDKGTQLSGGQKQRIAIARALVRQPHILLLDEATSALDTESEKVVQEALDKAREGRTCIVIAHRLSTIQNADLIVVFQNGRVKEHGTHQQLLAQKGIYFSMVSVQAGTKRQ

Molecule: O=C(O)c1ccc(/C=C2\SC(=S)N(c3cccc(C(F)(F)F)c3)C2=O)cc1 [CFTRinh172]
- forskolin-induced swelling effect under CFTR inhibitor (CFTR): completely blocked

Molecule: Cc1ccc(S(=O)(=O)OCC(=O)Nc2ccc(C(=O)O)c(O)c2)cc1 [S3I-201]
- stimulation of IL-2 on hIO growth in presence of inhibitor (hPSC-derived hIOs): prevented
- phosphorylation of STAT3 at tyrosine 705 (Y705) (p-STAT3 (Y705)): blocked

Molecule: O=[N+]([O-])c1ccc2c(c1)S(=O)(=O)C=C2 [Stattic]
- stimulation of IL-2 on hIO growth in presence of inhibitor (hPSC-derived hIOs): prevented
- phosphorylation of STAT3 at tyrosine 705 (Y705) (p-STAT3 (Y705)): blocked

B1: IL-22: another known STAT3 activator, cytokine (protein, UniProt Q9GZX6 34-179, looked up)
Interleukin-22: APISSHCRLDKSNFQQPYITNRTFMLAKEASLADNNTDVRLIGEKLFHGVSMSERCYLMKQVLNFTLEEVLFPQSDRFQPYMQEVVPFLARLSNRLSTCHIEGDDLHIQRNVQKLKDTVKKLGESGEIKAIGELDLLFMSLRNACI
- growth of hIOs with many crypt-like budding structures (hPSC-derived hIOs): promoted the growth

Now from value to molecule, other results behind:

- forskolin-induced swelling effect under CFTR inhibitor (CFTR): completely blocked
Molecule: O=C(CNc1ccc2ccccc2c1)N/N=C/c1cc(Br)c(O)c(Br)c1O [GlyH101]

- concentration of paclitaxel at the apical side, increase compared with control hIOs ([1]; IL-2-treated hIOs): ~3 fold
- concentration of paclitaxel at the apical side, increase compared with control hIOs ([1]; co-cultured hIOs): approximately 2.3 fold
Molecule: CC(=O)O[C@H]1C(=O)[C@@]2(C)[C@H]([C@H](OC(=O)c3ccccc3)[C@]3(O)C[C@H](OC(=O)[C@H](O)[C@@H](NC(=O)c4ccccc4)c4ccccc4)C(C)=C1C3(C)C)[C@]1(OC(C)=O)CO[C@@H]1C[C@@H]2O [paclitaxel]

- protein expression of Ki-67, OLFM4, MUC13 and KRT20 (hIOs [3]): increased
Molecule: Colivelin
- growth of hIOs with many crypt-like budding structures (hPSC-derived hIOs): promoted the growth
- size of hIO (hPSC-derived hIOs; various concentrations of colivelin): increased
- expression of intestinal maturation markers (hIOs [2]): increased
